experiment: RP, Thermo Scientific Acclaim RSLC 120 C18, 100 × 2.1 mm, 2.2 µm, 30 °C, 0.2 mL/min, estimated dead time 1.1 min; A: 90% water + 10% methanol + 0.01% formic acid + 5 mM ammonium formate, pH 3.61; B: methanol + 0.01% formic acid + 5 mM ammonium formate, pH 3.61; gradient (min/%B) 0/1 1/1 2/39 13/99.9 15/99.9 15.1/1 20.1/1; conditions: stereoisomer not certain

| SMILES | LC retention time [min] |
| --- | --- |
| CC(C)(C)NCC(O)COc1cccc2c1CC(O)C(O)C2 (stereo not drawn) [Nadolol] | 4.29 |
| Oc1ccc2c3c1OC1C(O)CCC4(O)C(C2)N(CC2CCC2)CCC314 (stereo not drawn) [Nalbuphine] | 4.17 |
| COP(=O)(OC)OC(Br)C(Cl)(Cl)Br (stereo not drawn) [Naled] | 8.55 |
| C=CCN1CCC23c4c5ccc(O)c4OC2C(O)C=CC3C1C5 (stereo not drawn) [Nalorphine] | 3.39 |
| C=CCN1CCC23c4c5ccc(O)c4OC2C(=O)CCC3(O)C1C5 (stereo not drawn) [Naloxone] | 3.44 |
| CC12CCC3C4CCC(=O)C=C4CCC3C1CCC2OC(=O)CCc1ccccc1 (stereo not drawn) [Nandrolone phenylpropionate] | 13.6 |
| CC12CCC3C4CCC(=O)C=C4CCC3C1CCC2O (stereo not drawn) [Nandrolone] | 9.37 |
| CCCC(C(=O)c1ccc2ccccc2c1)N1CCCC1 (stereo not drawn) [Naphyrone] | 7.33 |
| CCN(CC)C(=O)C(C)Oc1cccc2ccccc12 (stereo not drawn) [Napropamide] | 10.2 |
| O=C(O)c1ccccc1C(=O)Nc1cccc2ccccc12 [Naptalam (N-1-Naphthylphthalamic acid)] | 6.75 |
| CCC(C(=O)O)C1OC(C(C)C(O)C(C)C(=O)C(CC)C2OC3(C=CC(O)C4(CCC(C)(C5CCC(O)(CC)C(C)O5)O4)O3)C(C)CC2C)C(C)CC1C (stereo not drawn) [Narasin] | 16.1 |
| CC(C)C1CCC(C(=O)NC(Cc2ccccc2)C(=O)O)CC1 (stereo not drawn) [Nateglinide] | 10.4 |
| OC(CNCC(O)C1CCc2cc(F)ccc2O1)C1CCc2cc(F)ccc2O1 (stereo not drawn) [Nebivolol] | 8.28 |
| CCc1nn(CCCN2CCN(c3cccc(Cl)c3)CC2)c(=O)n1CCOc1ccccc1 [Nefazodone] | 9.95 |
| COC(=O)C(Cc1ccccc1)NC(=O)C(CC(=O)O)NCCC(C)(C)C (stereo not drawn) [Neotam] | 8.83 |
| COc1cc(OC)nc(NC(=O)NS(=O)(=O)c2ncccc2C(=O)N(C)C)n1 [Nicosulfuron] | 6.62 |
| c1cncc(C2CCCN2)c1 (stereo not drawn) [Nicotine-Nor] | 2.44 |
| COC(=O)C1=C(C)NC(C)=C(C(=O)OC)C1c1ccccc1[N+](=O)[O-] [Nifedipine] | 8.31 |
| O=C1Nc2ccc([N+](=O)[O-])cc2C(c2ccccc2F)=NC1O (stereo not drawn) [Nifoxipam] | 6.58 |
| COC1CC(CC2CCC(C)C(C(C)C(=O)O)O2)OC2(OC(C)(C3CCC(C)(C4OC(C5OC(O)(CO)C(C)CC5C)CC4C)O3)CC2C)C1C (stereo not drawn) [Nigericin] | 13.9 |

The remaining lines, values ahead:

| LC retention time [min] | SMILES |
| --- | --- |
| 9.82 | COc1ccc2cc(CCC(C)=O)ccc2c1 [Nabumetone] |
| 8.52 | CN(CC=Cc1ccccc1)Cc1cccc2ccccc12 [Naftifine] |
| 7.06 | CCn1cc(C(=O)O)c(=O)c2ccc(C)nc21 [Nalidixic acid] |
| 4.84 | c1ccc2c(CC3=NCCN3)cccc2c1 [Naphazoline] |
| 7.76 | O=C(O)Cc1cccc2ccccc12 [Naphthylacetic acid (1-)] |
| 8.99 | COc1ccc2cc(C(C)C(=O)O)ccc2c1 (stereo not drawn) [Naproxen] |
| 10.7 | CCCCN(C)C(=O)Nc1ccc(Cl)c(Cl)c1 [Neburon] |
| 5.67 | CN1CCOC(c2ccccc2)c2ccccc2C1 (stereo not drawn) [Nefopam] |
| 8.39 | COC(=O)C1=C(C)NC(C)=C(C(=O)OCCN(C)Cc2ccccc2)C1c1cccc([N+](=O)[O-])c1 (stereo not drawn) [Nicardipine] |
| 12.6 | O=C(Nc1ccc([N+](=O)[O-])cc1Cl)c1cc(Cl)ccc1O [Niclosamide] |
| 4.56 | Cc1c(NC(=O)c2cccnc2)c(=O)n(-c2ccccc2)n1C [Nifenazone] |
| 9.86 | O=C(O)c1cccnc1Nc1cccc(C(F)(F)F)c1 [Niflumic acid] |
| 4.64 | CCN(CC)C(=O)c1cccnc1 [Nikethamide] |

Source: the RepoRT retention time repository (doi:10.1021/acs.analchem.2c02893)
